Data published in ChEMBL document CHEMBL4665713, “Synthesis and biological evaluation of novel quinazoline-triazole hybrid compounds with potential use in Alzheimer's disease” (Bioorg Med Chem Lett, 2020).

Tests used:
Acetylcholinesterase [1] = molecular target: Acetylcholinesterase (Electrophorus electricus, UniProt O42275); experiment: Inhibition of electric eel AChE using acetylthiocholine iodide as substrate preincubated with enzyme for 10 mins prior to substrate addition and measured for 6 mins by Ellman's method
Acetylcholinesterase (Electrophorus electricus, UniProt O42275), sequence (O42275 whole entry): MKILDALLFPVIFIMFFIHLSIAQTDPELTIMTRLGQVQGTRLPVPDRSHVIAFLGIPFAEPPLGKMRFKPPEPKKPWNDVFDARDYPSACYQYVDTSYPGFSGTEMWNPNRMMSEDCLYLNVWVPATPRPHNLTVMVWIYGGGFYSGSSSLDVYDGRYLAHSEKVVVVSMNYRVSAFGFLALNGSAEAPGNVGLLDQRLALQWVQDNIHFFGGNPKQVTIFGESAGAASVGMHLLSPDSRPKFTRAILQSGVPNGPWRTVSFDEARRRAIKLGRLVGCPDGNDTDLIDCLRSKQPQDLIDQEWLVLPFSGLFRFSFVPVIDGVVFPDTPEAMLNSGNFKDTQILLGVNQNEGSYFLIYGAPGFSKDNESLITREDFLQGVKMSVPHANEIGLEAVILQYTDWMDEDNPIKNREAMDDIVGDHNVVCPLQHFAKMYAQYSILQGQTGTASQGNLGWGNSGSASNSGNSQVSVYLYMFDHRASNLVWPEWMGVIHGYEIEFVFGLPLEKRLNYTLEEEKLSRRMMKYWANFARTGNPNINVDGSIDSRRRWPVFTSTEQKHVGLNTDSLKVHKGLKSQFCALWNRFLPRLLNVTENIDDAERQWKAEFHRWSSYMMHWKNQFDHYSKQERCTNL

Acetylcholinesterase [2] = molecular target: T1, Acetylcholinesterase (Rattus norvegicus, UniProt P37136); experiment: Inhibition of AChE in rat brain using acetylthiocholine iodide as substrate by Ellman's UV-vis spectrophotometric method; type: tissue-based
T1 sequence (P37136 whole entry): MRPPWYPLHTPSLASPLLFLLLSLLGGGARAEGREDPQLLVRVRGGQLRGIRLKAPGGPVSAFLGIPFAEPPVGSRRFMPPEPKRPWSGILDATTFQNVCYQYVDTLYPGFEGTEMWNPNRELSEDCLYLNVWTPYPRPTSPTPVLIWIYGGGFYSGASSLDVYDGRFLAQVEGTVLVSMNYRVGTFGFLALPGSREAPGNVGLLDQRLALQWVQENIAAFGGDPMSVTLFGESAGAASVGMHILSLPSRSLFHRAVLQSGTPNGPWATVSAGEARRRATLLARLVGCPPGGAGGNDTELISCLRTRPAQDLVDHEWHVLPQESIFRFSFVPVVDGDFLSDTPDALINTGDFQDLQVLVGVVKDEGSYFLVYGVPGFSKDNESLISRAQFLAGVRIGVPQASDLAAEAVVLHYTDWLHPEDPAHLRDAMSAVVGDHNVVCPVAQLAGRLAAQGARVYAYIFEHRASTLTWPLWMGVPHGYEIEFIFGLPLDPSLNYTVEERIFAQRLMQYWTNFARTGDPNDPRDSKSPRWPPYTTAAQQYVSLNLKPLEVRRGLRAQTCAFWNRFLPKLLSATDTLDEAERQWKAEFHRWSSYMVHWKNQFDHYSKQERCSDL

[3] = Cytotoxicity against human KB-CCL-17 cells assessed as reduction in cell viability by MTT assay; type: functional, cell-based
HepG2 = experiment: Cytotoxicity against human HepG2 cells assessed as reduction in cell viability by MTT assay; type: functional, cell-based
[4] = Cytotoxicity against human Lu1 cells assessed as reduction in cell viability by MTT assay; type: functional, cell-based

Compound | IC50 (Acetylcholinesterase [1]) [µM] | IC50 (Acetylcholinesterase [2]) [µM] | IC50 [3] [µM] | IC50 (HepG2) [µM] | IC50 [4] [µM]
Cc1ccc(Cn2cc(Oc3ccc4cc(C(=O)NC5CCN(Cc6ccccc6)CC5)c(=O)oc4c3)nn2)cc1C | 1.8 |  |  |  | 
C#CCOc1ccc2ncnc(NCc3ccccc3)c2c1 |  | 47.7 | 59.7 | > 200 | > 200
C#CCOc1ccc2ncnc(N3CCN(C)CC3)c2c1 |  | 83.9 | > 200 | > 200 | > 200
O=[N+]([O-])c1cccc(-n2cc(COc3ccc4ncnc(NCc5ccccc5)c4c3)nn2)c1 |  | 1.1 | > 200 | 94.1 | > 200
CN1CCN(c2ncnc3ccc(OCc4cn(-c5cccc([N+](=O)[O-])c5)nn4)cc23)CC1 |  | 15.8 | > 200 | > 200 | > 200
CN1CCN(c2ncnc3ccc(OCc4cn(-c5ccccc5[N+](=O)[O-])nn4)cc23)CC1 |  | 37.4 | > 200 | 142 | > 200
O=[N+]([O-])c1ccc(-n2cc(COc3ccc4ncnc(Nc5cccc([N+](=O)[O-])c5)c4c3)nn2)cc1 |  | > 200 |  |  | 
C#CCOc1ccc2ncnc(Nc3cccc([N+](=O)[O-])c3)c2c1 |  | > 200 |  |  | 
N#Cc1cc(-n2cc(COc3ccc4ncnc(NCc5ccccc5)c4c3)nn2)ccc1C(F)(F)F |  | > 200 |  |  | 
O=[N+]([O-])c1ccc(-n2cc(COc3ccc4ncnc(NCc5ccccc5)c4c3)nn2)cc1 |  | > 200 |  |  | 
O=[N+]([O-])c1ccccc1-n1cc(COc2ccc3ncnc(NCc4ccccc4)c3c2)nn1 |  | 0.23 | 42.7 | > 200 | > 200
O=[N+]([O-])c1cccc(Nc2ncnc3ccc(OCc4cn(-c5cccc([N+](=O)[O-])c5)nn4)cc23)c1 |  | > 200 |  |  | 
N#Cc1cc(-n2cc(COc3ccc4ncnc(Nc5cccc([N+](=O)[O-])c5)c4c3)nn2)ccc1C(F)(F)F |  | > 200 |  |  | 
CN1CCN(c2ncnc3ccc(OCc4cn(-c5ccc([N+](=O)[O-])cc5)nn4)cc23)CC1 |  | > 200 |  |  | 
CN1CCN(c2ncnc3ccc(OCc4cn(-c5ccc(C(F)(F)F)c(C#N)c5)nn4)cc23)CC1 |  | > 200 |  |  | 
O=[N+]([O-])c1cccc(Nc2ncnc3ccc(OCc4cn(-c5ccccc5[N+](=O)[O-])nn4)cc23)c1 |  | 2.06 | > 200 | > 200 | > 200
Cc1c2ccncc2c(C)c2c1[nH]c1ccccc12 [ELLIPTECINE] |  |  | 1.1 | 0.85 | 1.3
